Source: US10308649B2, “Compounds and methods to suppress autoimmune response” (Oregon State University, priority 2014, dated 2019)

What was measured:
[1] = test system: NOD.Foxp3DTR mice; assay: Islet infiltration in Foxp3 depleted (DT treated) NOD.Foxp3DTR mice; type: in vivo, mouse; settings: day 9, AHRL1 60 mg/kg oral days -1, 1, 3, 5, 7, TCDD day -1
Text: FIGS. 6a-6e illustrate the therapeutic effects of treatment with an AhR ligand on a Foxp3 deficient subject using a NOD.Foxp3− mouse model. […]. NOD.Foxp3^DTR mice were obtained from the Juvenile Diabetes Research Foundation Center (JDRF) for Immune Tolerance in Diabetes at Harvard (CITDH). Mice were bred and maintained under specific pathogen-free conditions at Oregon State University facilities. All experimental procedures using animals were approved by the Institutional Animal Care and Use Committee at Oregon State University.
FIG. 6a illustrates details of the mouse model used to analyze the therapeutic effects and mechanisms by which AhR activation alters T cell differentiation. […] Arrows 152 illustrate the NOD.Foxp3^DTR mice were orally dosed with 60 mg/kg AHRL1 on days −1, 1, 3, 5, and 7 relative to DT treatment on day 0. The carrier for AHRL1 was a 30% DMSO, 20% CREMAPHOR, 50% PECEOL solution. Data was also collected from NOD.Foxp3^DTR mice treated with TCDD on day −1 relative to DT treatment on day 0. […]
The pancreases from the sacrificed mice were excised, sectioned, and stained with hematoxylin and eosin for analysis of islet infiltration by inflammatory CTL cells. Islet infiltration was scored on sequential hematoxylin and eosin stained pancreas sections separated by 200 μm. Islets were scored as no infiltration, less than 50% infiltration, or greater than 50% infiltration. […]

[2] = test system: B6D2F1 host mice; assay: 15-day GVHD model in B6D2F1 host mice; type: in vivo, mouse
Method: GVHD was established using donor cells obtained from wild type or AhR-deficient mice. B6D2F1 host mice were injected with wild type (WT) or AhR^−/− splenocytes to initiate the graft versus host (GVH) response. Due to a limited number of AhR-deficient mice available, whole splenocytes rather than purified T cells were used to initiate the GVH response. Host mice were given AHRL1 or vehicle treatments daily for 15 days. The vehicle consisted of a mixture of 6.7% anisole and peanut oil. A single loading dose of 10 mg/kg AHRL1 was given at the time of donor cell injection and a maintenance dose of 2 mg/kg AHRL1 was given every day thereafter until termination of the experiment on day 15.
The progression of GVHD in the host mice was monitored and a clinical GVHD pathology score was calculated. At termination of the 15-day study, each animal was evaluated and given a clinical GVHD pathology score based on five criteria: changes in weight, posture, activity, fur texture, and mortality. The clinical GVHD pathology score was assessed on a scale of 0 to 3, where 0 was normal, 1 was moderate morbidity, 2 was severe morbidity, and 3 was death.
In a separate study, the effect of AHRL1 on donor cell engraftment was examined and directly compared with the effect of TCDD. B6D2F1 host mice in groups of 6 were injected with splenocytes from C57Bl/6 mice to initiate the GVH response, and treated with AHRL1 or vehicle daily for 15 days. The vehicle consisted of a mixture of 6.7% anisole and peanut oil. A single loading dose of 10 mg/kg AHRL1 was given at the time of donor cell injection and a maintenance dose of 2 mg/kg AHRL1 was given every day thereafter until termination of the experiment on day 15. 15 μg/kg of TCDD was given to an additional group of 6 mice on day 0 as a positive control. […] The donor cells were identified in the host spleen as the H-2D^d negative population.

[3] = test system: NOD mice; assay: Flow cytometry of leukocyte composition of pancreas, PLN and spleen of NOD mice; type: in vivo, mouse
Method: The leukocyte composition of the pancreas and draining lymph nodes was analyzed at 12, 15, and 20 weeks of age using flow cytometry. Mice were sacrificed at 12, 15, and 20 weeks of age, draining lymph nodes and pancreata were excised, and single cell suspensions were prepared for analysis with flow cytometry. Fc receptors were blocked with rat immunoglobulin G (IgG) acquired from Jackson ImmunoResearch. The cells were stained with the following antibodies: CD4 (RM4, eBioscience), CD8 (53-6.7, eBioscience), CD19 (1D3, eBioscience), CD45 (30-F11, BD Biosciences), Foxp3 (FJK-16s, eBioscience), Nrp1 (3DS304M, eBioscience), CD25 (PC61.5, eBioscience), RORγt (AFKJS-9, eBioscience). For intracellular staining, cells were fixed and permeabilized using a Foxp3 Fixation/Permeabilization buffer acquired from eBioscience (San Diego, Calif.). Data were acquired using a FC-500 flow cytometer (BECKMAN COULTER) and compensated and analyzed using FLOWJO software. Fluorescence minus one (FMO) controls were used for setting gates for analysis.
FIGS. 3a-3f illustrate results comparing the leukocyte composition of the vehicle treated NOD mice to the ARHL1 treated NOD mice from FIG. 2b. The leukocyte composition of the vehicle treated NOD mice to the ARHL1 treated NOD mice was analyzed at 12 weeks of age. Student's t-test was used for analysis. Sample size of n=5-9 mice per group was used. A single asterisk (*) signifies p≤0.05; a double asterisk (**) signifies p≤0.01; a triple asterisk (***) signifies p≤0.001.
FIGS. 4a-4t illustrate results comparing leukocyte composition of draining lymph nodes in vehicle treated, AHRL1 treated, and TCDD treated NOD mice at 12, 15, and 20 weeks of age. Seven-week-old NOD mice were treated with vehicle, AHRL1, or TCDD as described with reference to FIG. 2b. At 12 weeks of age, 15 weeks of age, and 20 weeks of age, the draining lymph nodes were excised from the mice and stained with CD4 antibodies and Foxp3 antibodies. The results were analyzed by flow cytometry and plotted as average +/−standard deviation (s.d.). A sample size of n=5-9 mice per group was used. A single asterisk (*) signifies p≤0.05.

[4] = in humans; cited from earlier work
[5] = Clinical chemistry profile from toxicology screen of NOD mice; type: in vivo, mouse; settings: 20 weeks of age
Text: The results listed in Table 1 illustrate an absence of clinical signs of toxicity after prolonged treatment with AHRL1. Table 1 lists the results of a clinical chemistry profile from a toxicology screen of the AHRL1 treated, TCDD treated, and vehicle treated mice. The clinical chemistry panel includes tests for substances in the blood that have biological functions, metabolites or waste products, and substances that indicate cell damage or disease. The concentrations of the substances listed in Table 1 were measured at 20 weeks of age. The concentrations are reported as milligrams per deciliter (mg/dl), grams per deciliter (g/dl), units per liter (U/L), or milli equivalents per liter (mEq/L).
FIGS. 18a-18r show the clinical chemistry profile from a toxicology screen for three groups: AHRL1 treated mice, vehicle treated mice, and untreated mice. For the test group, the mice were treated with AHRL1. The vehicle given was the carrier for the AHRL1 compound. The carrier included 30% DMSO, 20% Cremaphor, and 50% Peceol. The mice were tested after 12 weeks of exposure. The clinical chemistry panel includes tests for substances in the blood that have biological functions, metabolites or waste products, and substances that indicate cell damage or disease.

Clc1cc2c(cc1Cl)Oc1cc(Cl)c(Cl)cc1O2 [TCDD, 2,3,7,8-tetrachlorodibenzo-p-dioxin]
islets showing no infiltration [1]: greater percentage of islets being free from infiltration
total number of donor CD4+ and CD8+ T cells engrafted in the host spleen ([2]; day 15, AHRL1 10 mg/kg then 2 mg/kg daily, TCDD 15 μg/kg day 0): reduced total number
percentage and number of activated donor CD8+ T cells expressing a CTL phenotype (CD8+CD44hiCD45RBlow) ([2]; host spleen, day 15): reduce the percentage and number
percentage and number of host B cells (CD19+ cells) ([2]; host spleen, day 15, vs vehicle): increased percentage and number
percentage of CD4+Foxp3- cells that were Nrp1+ ([3]; NOD.Foxp3WT mice, 20 weeks of age): decrease
percentage of Foxp3+ cells gated on CD4+ cells ([3]; PLN, 12 weeks of age): higher percentage
percentage of Foxp3+ cells gated on CD4+ cells ([3]; PLN, 15 weeks of age): higher percentage
percentage of Foxp3+ cells gated on CD4+ cells ([3]; PLN, 20 weeks of age): higher percentage
percentage of Foxp3+ cells gated on CD4+ cells ([3]; spleen, 12 weeks of age, vs vehicle): higher percentage
percentage of Foxp3+ cells gated on CD4+ cells ([3]; spleen, 15 weeks of age, vs vehicle): higher percentage
percentage of Foxp3+ cells gated on CD4+ cells ([3]; spleen, 20 weeks of age, vs vehicle): higher percentage
half-life [4]: approximately seven
Alanine Aminotransferase (ALT) [5]: 24.0 ± 2.5 U/L
Albumin [5]: 3.4 ± 0.1 g/dL
Alkaline Phosphatase [5]: 80.0 ± 14.7 U/L
Anion Gap [5]: 34.0 ± 1.2 mEq/L
Bicarbonate (tCO2) [5]: 18.6 ± 1.4 mEq/L
Bilirubin, Total [5]: 0.43 ± 0.64 mg/dL
Blood Urine Nitrogen (BUN) [5]: 20.0 ± 2.7 mg/dL
Calcium [5]: 10.8 ± 0.4 mg/dL
Chloride [5]: 109.5 ± 1.7 mEq/L
Cholesterol [5]: 91.9 ± 5.1 mg/dL
Creatinine [5]: 0.3 ± 0.1 mg/dL
Creatinine Kinase (CK) [5]: 398.3 ± 248.7 U/L
Gamma-glutamyl transferase (GGT) [5]: 0.0 ± 0.0 U/L
Phosphorous [5]: 8.2 ± 1.2 mg/dL
Potassium [5]: 9.7 ± 0.4 mEq/L
Sodium [5]: 151.9 ± 2.4 mEq/L
Total Protein [5]: 5.6 ± 0.2 g/dL
